In ChEMBL document CHEMBL1201862, “PubChem BioAssay data set” (2004):
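Each compound was tested at five concentrations against cells in 96-well plates for 48 hours. At the GI50, growth is halved.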 Activity calls are given as the source filed them. Rule as the data show it: active = GI50 up to about 1.1 µM and inactive = higher.

Columns and labels:
Assay in all cases: growth of human tumour cells (NCI), 48 h
RXF 393 = system: RXF 393
HCT-116 = system: HCT-116
RPMI-8226 = system: RPMI-8226
A549 = system: A549
SF-268 = system: SF-268
SF-295 = system: SF-295
OVCAR-5 = system: OVCAR-5
ACHN = system: ACHN
SK-MEL-5 = system: SK-MEL-5
SK-OV-3 = system: SK-OV-3
SW-620 = system: SW-620
A498 = system: A498
NCI-H23 = system: NCI-H23
HOP-92 = system: HOP-92
CAKI-1 = system: CAKI-1
COLO 205 = system: COLO 205
HCC 2998 = system: HCC 2998

Measured: GI50

Cc1nc2ccccc2c(=O)n1NC(=S)Nc1ccccc1
inactive: RXF 393 75.7 µM | HCT-116 > 100 µM | RPMI-8226 > 100 µM | A549 > 100 µM | SF-268 > 100 µM | SF-295 > 100 µM | OVCAR-5 > 100 µM | ACHN > 100 µM | SK-MEL-5 > 100 µM | SK-OV-3 > 100 µM | SW-620 > 100 µM | A498 > 100 µM | NCI-H23 84.3 µM | HOP-92 85.1 µM | CAKI-1 > 100 µM | COLO 205 > 100 µM

N#CC(C(=O)/C(=N/N)C(C#N)c1ccc(Cl)cc1)c1ccc(Cl)cc1 (centres undefined)
inactive: RXF 393 > 100 µM | HCT-116 > 100 µM | RPMI-8226 > 100 µM | A549 > 100 µM | SF-268 > 100 µM | SF-295 > 100 µM | OVCAR-5 > 100 µM | ACHN > 100 µM | HCC 2998 > 100 µM | SK-MEL-5 > 100 µM | SW-620 > 100 µM | A498 > 100 µM | NCI-H23 > 100 µM | HOP-92 > 100 µM | COLO 205 > 100 µM

CCc1cc(CCC(=O)Nc2ccccc2[N+](=O)[O-])nc(S)n1
inactive: RXF 393 > 100 µM | HCT-116 > 100 µM | A549 > 100 µM | SF-268 > 100 µM | SF-295 > 100 µM | OVCAR-5 > 100 µM | ACHN > 100 µM | SK-OV-3 > 100 µM | SW-620 > 100 µM | NCI-H23 > 100 µM | HOP-92 > 100 µM | COLO 205 > 100 µM

CCOc1ncnc2ccc(Cl)c(I)c12
inactive: RXF 393 15 µM | HCT-116 82.2 µM | RPMI-8226 29.5 µM | A549 75.7 µM | SF-268 31.2 µM | SF-295 > 100 µM | OVCAR-5 > 100 µM | ACHN 33.6 µM | HCC 2998 > 100 µM | SK-MEL-5 59.8 µM | SK-OV-3 36.4 µM | SW-620 > 100 µM | A498 31 µM | NCI-H23 79.1 µM | CAKI-1 22.6 µM | COLO 205 > 100 µM

Clc1ccccc1C1SCc2nc3ccccc3n21 (centres undefined)
inactive: RXF 393 24.5 µM | HCT-116 18.7 µM | RPMI-8226 20 µM | A549 32.6 µM | SF-268 37.1 µM | SF-295 28.8 µM | OVCAR-5 17.6 µM | ACHN 22.1 µM | SK-MEL-5 17.9 µM | SK-OV-3 27.6 µM | SW-620 43.5 µM | NCI-H23 25.4 µM | HOP-92 8.79 µM | CAKI-1 25.4 µM | COLO 205 49.7 µM

C=C(COC(C)=O)CC(/C=C(\C)CCC=C(C)C)OC(C)=O (centres undefined)
inactive: RXF 393 > 100 µM | HCT-116 > 100 µM | RPMI-8226 > 10 µM | A549 > 100 µM | SF-268 > 100 µM | SF-295 > 100 µM | OVCAR-5 > 100 µM | ACHN > 100 µM | HCC 2998 > 100 µM | SK-MEL-5 > 100 µM | SK-OV-3 > 100 µM | SW-620 > 100 µM | A498 > 100 µM | NCI-H23 > 100 µM | HOP-92 46.5 µM | COLO 205 > 100 µM

COC(=O)C(C(=O)C(=O)NC1=C(Cl)C(=O)c2ccccc2C1=O)c1csc(-n2nc(-c3ccccc3)cc2-c2ccccc2)n1 (centres undefined)
inactive: RXF 393 34.7 µM | HCT-116 > 100 µM | RPMI-8226 > 100 µM | A549 > 100 µM | SF-268 24.3 µM | SF-295 > 100 µM | OVCAR-5 > 100 µM | ACHN > 100 µM | HCC 2998 > 100 µM | SK-OV-3 > 100 µM | SW-620 > 100 µM | A498 > 100 µM | NCI-H23 > 100 µM | HOP-92 > 100 µM | CAKI-1 > 100 µM | COLO 205 > 100 µM

COC1OC(COCc2ccc(Cl)cc2)C(OCc2ccc(Cl)cc2)C1O (centres undefined)
inactive: RXF 393 15.1 µM | RPMI-8226 23.9 µM | A549 17.3 µM | SF-268 17.1 µM | SF-295 18 µM | OVCAR-5 16.1 µM | ACHN 18.6 µM | HCC 2998 17.7 µM | SK-MEL-5 15.3 µM | SK-OV-3 33.9 µM | SW-620 15.4 µM | NCI-H23 15.8 µM | HOP-92 11.2 µM | CAKI-1 18 µM | COLO 205 19 µM

CCCCCCC(C)OC(=O)/C=C(\CC(=O)OC(C)CCCCCC)C(=O)OC(C)CCCCCC (centres undefined)
inactive: RXF 393 > 100 µM | HCT-116 > 100 µM | RPMI-8226 > 100 µM | A549 > 100 µM | SF-268 > 100 µM | SF-295 > 100 µM | OVCAR-5 > 100 µM | ACHN > 100 µM | HCC 2998 > 100 µM | SK-MEL-5 > 100 µM | SK-OV-3 > 100 µM | SW-620 > 100 µM | A498 > 100 µM | NCI-H23 > 100 µM | HOP-92 > 100 µM | CAKI-1 > 100 µM | COLO 205 > 100 µM

O=C(CCn1[nH]c(=O)c(Cl)c(Cl)c1=O)NO
inactive: RXF 393 > 100 µM | RPMI-8226 > 100 µM | A549 > 100 µM | SF-268 > 100 µM | SF-295 > 100 µM | OVCAR-5 > 100 µM | ACHN > 100 µM | HCC 2998 > 100 µM | SK-MEL-5 > 100 µM | SK-OV-3 > 100 µM | SW-620 > 100 µM | A498 > 100 µM | NCI-H23 > 100 µM | CAKI-1 > 100 µM | COLO 205 > 100 µM

C=C(CS(=O)(=O)c1ccccc1)[P+](c1ccccc1)(c1ccccc1)c1ccccc1
inactive: RXF 393 19.2 µM | HCT-116 12.7 µM | RPMI-8226 3.06 µM | A549 34.3 µM | SF-268 2.72 µM | SF-295 20.2 µM | OVCAR-5 33.9 µM | ACHN 21.7 µM | HCC 2998 20.8 µM | SK-MEL-5 13.6 µM | SK-OV-3 27.3 µM | SW-620 18.2 µM | A498 35.7 µM | NCI-H23 20.4 µM | HOP-92 24.5 µM | CAKI-1 23.4 µM

COC12OCCN(CCO)C1=CC(=O)C1(C)N=NC(C)C12 (centres undefined)
inactive: RXF 393 > 100 µM | HCT-116 > 100 µM | RPMI-8226 > 100 µM | A549 > 100 µM | SF-295 > 100 µM | ACHN > 100 µM | HCC 2998 > 100 µM | SK-MEL-5 > 100 µM | SK-OV-3 > 100 µM | SW-620 > 100 µM | A498 > 100 µM | NCI-H23 > 100 µM | HOP-92 > 100 µM | CAKI-1 > 100 µM | COLO 205 > 100 µM

COc1ccc2nc(NC(=O)C(=O)CC(=O)c3ccc(Cl)cc3)sc2c1
inactive: RXF 393 31.3 µM | HCT-116 > 100 µM | A549 67.1 µM | SF-268 85.3 µM | SF-295 56.9 µM | ACHN > 100 µM | HCC 2998 56.9 µM | SK-MEL-5 > 100 µM | SK-OV-3 34.7 µM | SW-620 > 100 µM | A498 > 100 µM | NCI-H23 > 100 µM | HOP-92 30.5 µM | CAKI-1 58.5 µM | COLO 205 > 100 µM

CSCC1CC(c2ccc(Cl)cc2)=NO1 (centres undefined)
inactive: HCT-116 > 100 µM | RPMI-8226 > 100 µM | A549 > 100 µM | SF-268 > 100 µM | SF-295 > 100 µM | OVCAR-5 > 100 µM | ACHN > 100 µM | HCC 2998 > 100 µM | SK-MEL-5 > 100 µM | SK-OV-3 > 100 µM | SW-620 > 100 µM | A498 > 100 µM | NCI-H23 > 100 µM | HOP-92 > 100 µM | CAKI-1 > 100 µM | COLO 205 > 100 µM

OC/C=C(\I)CCCOCOCc1ccccc1
inactive: RXF 393 16.4 µM | HCT-116 28.1 µM | RPMI-8226 18.2 µM | A549 32 µM | SF-268 27.7 µM | SF-295 36.1 µM | OVCAR-5 45.4 µM | ACHN 32.3 µM | HCC 2998 34 µM | SK-MEL-5 22.1 µM | SK-OV-3 > 100 µM | SW-620 44 µM | A498 60.8 µM | NCI-H23 26.3 µM | HOP-92 15.7 µM | COLO 205 67.1 µM

N#Cc1ccc(Oc2ccccc2)cc1C#N
inactive: RXF 393 > 100 µM | HCT-116 74.8 µM | RPMI-8226 42.8 µM | A549 > 100 µM | SF-268 > 100 µM | SF-295 > 100 µM | OVCAR-5 > 100 µM | ACHN > 100 µM | HCC 2998 > 100 µM | SK-MEL-5 > 100 µM | SK-OV-3 > 100 µM | A498 > 100 µM | NCI-H23 > 100 µM | HOP-92 > 100 µM | CAKI-1 63.4 µM | COLO 205 23.2 µM

O=c1oc2c3ccc4ccccc4c3n(CCN3CCOCC3)c2c2ccccc12
inactive: HCT-116 > 100 µM | RPMI-8226 46.5 µM | A549 5.42 µM | SF-268 19.7 µM | SF-295 6.38 µM | ACHN 5.6 µM | HCC 2998 > 100 µM | SK-OV-3 > 100 µM | SW-620 5.73 µM | HOP-92 > 100 µM | CAKI-1 6.78 µM | COLO 205 > 100 µM

COc1ccc(/N=N/c2c(-c3ccccc3)nn(C(=O)CC(=O)Nc3ccccc3Cl)c2-c2ccccc2)cc1
inactive: RXF 393 > 100 µM | HCT-116 > 100 µM | A549 > 100 µM | SF-268 82.8 µM | SF-295 > 100 µM | OVCAR-5 97.5 µM | ACHN > 100 µM | HCC 2998 > 100 µM | SK-MEL-5 > 100 µM | SW-620 > 100 µM | A498 > 100 µM | NCI-H23 > 100 µM | HOP-92 20.6 µM | CAKI-1 > 100 µM | COLO 205 > 100 µM
